Source: BindingDB's records for doi:10.1016/j.bmcl.2015.12.003 (University of Auckland, 2016)

Experiment: Inhibition of recombinant perforin (unknown origin) mediated lysis of human Jurkat cells pre-incubated for 30 mins with perforin followed by incubation with Jurkat cells at 37 degC for 4 hrs assessed as 51Cr release by gamma counting analysis

SMILES	IC50 [µM]
O=C(NCCN1CCOCC1)c1ccc(-c2ccc(-c3ccc4c(c3)COC4=O)s2)cc1O	12.8
CN(C)CCNC(=O)c1ccc(-c2ccc(-c3ccc4c(c3)COC4=O)s2)cc1O	> 20
NC(=O)c1ccc(-c2ccc(-c3ccc4c(c3)COC4=O)s2)cc1O	0.67
CC(O)CNC(=O)c1ccc(-c2ccc(-c3ccc4c(c3)COC4=O)s2)cc1O (stereo unspecified)	> 20
O=C1OCc2cc(-c3ccc(-c4ccncc4)s3)ccc21	4.53
N#Cc1cccc(-c2ccc(-c3ccc4c(c3)COC4=O)s2)c1	20
O=C1OCc2cc(-c3ccc(-c4ccc5c(c4)COC5=O)s3)ccc21	6.24
O=C1OCc2cc(-c3ccc(-c4cccc(Cl)c4)s3)ccc21	> 20
CN(C)CCNC(=O)c1ccc(-c2ccc(-c3ccc4c(c3)COC4=O)s2)cc1N	> 20
NC(=O)CNC(=O)c1ccc(-c2ccc(-c3ccc4c(c3)COC4=O)s2)cc1O	2.65
O=C(NCCO)c1ccc(-c2ccc(-c3ccc4c(c3)COC4=O)s2)cc1O	3.31
CC(C)(C)NS(=O)(=O)c1ccc(-c2ccc(-c3ccc4c(c3)COC4=O)s2)cc1	6.09
NC(=O)c1ccc(-c2ccc(-c3ccc4c(c3)CNC4=O)s2)cc1	6.04
COc1ccccc1-c1ccc(-c2ccc3c(c2)COC3=O)s1	> 20
NC(=O)CCNC(=O)c1ccc(-c2ccc(-c3ccc4c(c3)COC4=O)s2)cc1O	7.12
NS(=O)(=O)c1cccc(-c2ccc(-c3ccc4c(c3)COC4=O)s2)c1	4.85
O=C1OCc2cc(-c3ccc(-c4ccccc4Cl)s3)ccc21	> 20
O=C1OCc2cc(-c3ccc(-c4ccccc4)s3)ccc21	> 20
Nc1cc(-c2ccc(-c3ccc4c(c3)COC4=O)s2)ccc1C(=O)NCCN1CCOCC1	14.7
Cc1ccccc1-c1ccc(-c2ccc3c(c2)COC3=O)s1	> 20

Second part, the molecule after the results:

IC50 [µM]	SMILES
> 20	CN(C)CCCNC(=O)c1ccc(-c2ccc(-c3ccc4c(c3)COC4=O)s2)cc1
> 20	Cc1ccc(-c2ccc(-c3ccc4c(c3)COC4=O)s2)cc1
> 20	CN1CCN(C(=O)c2ccc(-c3ccc(-c4ccc5c(c4)COC5=O)s3)cc2)CC1
14	Nc1cccc(-c2ccc(-c3ccc4c(c3)COC4=O)s2)c1
9.36	COc1ccc(-c2ccc(-c3ccc4c(c3)COC4=O)s2)cc1
> 20	O=C1OCc2cc(-c3ccc(-c4ccc(Cl)cc4)s3)ccc21
> 20	CS(=O)(=O)c1ccc(-c2ccc(-c3ccc4c(c3)COC4=O)s2)cc1
6.87	N#Cc1ccc(-c2ccc(-c3ccc4c(c3)COC4=O)s2)cc1
> 20	Cc1cccc(-c2ccc(-c3ccc4c(c3)COC4=O)s2)c1
11.8	Nc1ccc(-c2ccc(-c3ccc4c(c3)COC4=O)s2)cc1
10.7	CNC(=O)c1ccc(-c2ccc(-c3ccc4c(c3)COC4=O)s2)cc1
11	CCOC(=O)c1ccc(-c2ccc(-c3ccc4c(c3)COC4=O)s2)cc1
5.89	O=C1OCc2cc(-c3ccc(-c4cccc(O)c4)s3)ccc21
0.9	O=C1OCc2cc(-c3ccc(-c4ccc(CO)cc4)s3)ccc21
> 20	O=C1OCc2cc(-c3ccc(-c4ccc(O)cc4)s3)ccc21
1.09	CS(=O)(=O)Nc1ccc(-c2ccc(-c3ccc4c(c3)COC4=O)s2)cc1
> 20	CSc1ccc(-c2ccc(-c3ccc4c(c3)COC4=O)s2)cc1
0.92	NC(=O)c1ccc(-c2ccc(-c3ccc4c(c3)COC4=O)s2)cn1
> 20	CCOC(=O)c1ccc(-c2ccc(-c3ccc4c(c3)COC4=O)s2)cc1O
0.18	NC(=O)c1ccc(-c2ccc(-c3ccc4c(c3)COC4=O)s2)cc1
> 20	CN(C)C(=O)c1ccc(-c2ccc(-c3ccc4c(c3)COC4=O)s2)cc1
> 20	COc1cccc(-c2ccc(-c3ccc4c(c3)COC4=O)s2)c1
5.84	Nc1cc(-c2ccc(-c3ccc4c(c3)COC4=O)s2)ccc1C(=O)O
> 20	CN1Cc2cc(-c3ccc(-c4ccc(C(N)=O)cc4)s3)ccc2C1=O
1.2	NC(=O)c1ccc(-c2ccc(-c3ccc4c(c3)COC4=O)s2)cc1N
2.97	NC(=O)c1cccc(-c2ccc(-c3ccc4c(c3)COC4=O)s2)c1
